In patent publication US6355785B1, “Guanosine-rich oligonucleotide integrase inhibitors” (Aronex Pharmaceuticals, Inc., priority 1993, dated 2002):
Like-named read-outs stand apart in the source and are kept apart here.

Legend:
HIV-2 (ROD, EHO) = assay: HIV-2 infection assay in MT4 cells; format: cell-based; details: read-out: IC50 virus production
[1] = biological target: recombinant HIV-1 integrase (wild-type) (Human immunodeficiency virus type 1 group M subtype B, UniProt P12497); assay: HIV-1 integrase 3′-processing and strand transfer assays; format: biochemical; parameters: Purified recombinant HIV-1 integrase enzyme (wild-type) was a generous gift from Dr. R. Craigie; purchased gift of Dr. R. Craigie, Laboratory of Molecular Biology, NIDDK (not bought)
Procedure: Integrase enzyme assays. Purified recombinant HIV-1 integrase enzyme (wild-type) was a generous gift from Dr. R. Craigie, Laboratory of Molecular Biology, National Institute of Diabetes and Digestive and Kidney Diseases. The enzyme (0.25 μM) was preincubated in reaction buffer at 20° C. for 30 minutes. All 3′-processing and strand-transfer reactions were performed as described previously by Fresen et al. (Fresen, et al., Proc. Natl. Acad. Sci. USA 90:2399-2403 (1993)) and Mazumder et al. (Mazumder, et al., Proc. Natl. Acad. Sci. USA 91:5771-5775 (1994)). Enzyme reactions were quenched by the addition of Maxam-Gilbert loading dye, and an aliquot was electrophoresed on a denaturing 20% polyacrylamide gel. Gels were then dried and subjected to autoradiography using Kodax XAR-2 film or exposed in a Molecular Dynamics Phospholmager cassette.
Integrase was preincubated at a final concentration of 200 (for HIV-1 and HIV-2) or 600 nM (for FIV and SIV) with inhibitor in reaction buffer (50 mM Nac1, 1 mM HEPES, pH 7.5, 50 μM dithiothreitol, 10% glycerol (wt/vol), 7.5 mM MnCl2 or MgCL2 (when specified), 0.1 mg/mL bovine serum albumin, 20 mM 2-mercaptoethanol, 10% dimethyl sulfoxide, and 25 mM MOPS, pH 7.2) at 30° C. for 30 minutes. When magnesium was used as the divalent metal ion, polyethylene glycol was added at a final concentration of 5% to increase activity as previously described (Engelman & Craigie, 1995). Preincubation for 30 minutes of the enzyme with inhibitor was performed to optimize increases the inhibitory activity in the 3′-processing reaction (Fesen et al., 1994). Then, 30 nM of the 5′-end ^32P-labeled linear oligonucleotide substrate was added, and incubation was continued for an additional 1 hr. The final reaction volume was 16 μL.
Electrophoresis and quantitation. Reactions were quenched by the addition of an equal volume […] of loading dye (98% deionized formamide, 10 mM EDTA, 0.025% xylene cyanol, 0.025% bromophenol blue). An aliquot (5 μL) was electrophoresed on a denaturing 20% polyacrylamide gel (0.09 M Tris-borate pH 8.3, 2 mM EDTA, 20% acrylamide, 8M urea). Gels were dried, exposed in a Molecular Dynamics Phosphorimager cassette, and analyzed using a Molecular Dynamics phosphorimager (Sunnyvale, Calif.). Percent inhibition was calculated using the following equation:
where C, N, and D are the fractions of 21mer substrate converted to 19mer (3′-processing product) or strand transfer products for DNA alone, DNA plus integrase, and integrase plus drug, respectively.
Antiviral assay. The RF laboratory strain of HIV-1 was used to infect established cell lines for one hour at 37° C. prior to washing and resuspension in medium containing increasing concentrations of drug. […] Purified recombinant HIV-1 integrase enzyme (wild-type) was a generous gift from Dr. Craigie, Laboratory of Molecular Biology, NIDDK. All 3′-processing and strand-transfers were performed as described previously by Fresen et al. (Fresen et al. (1993) Proc. Natl. Acad. Sci. VSA 90, 2399-2403) and Mazurnder et al. (Mazumder et al. (1994) Proc. Natl. Acad. Sci. USA 91, 5771-75).

[2] = tested on: Vesicular Stomatitis virus
[3] = tested on: HIV-1 strains (SKI, RF, DV, IIIB, ADP/141); assay: microbe, parasite or virus in culture; format: cell-based
Influenza A (H3N2) = Influenza A (H3N2) assay
SIVMAC251 = format: cell-based, simian immunodeficiency virus; details: SIVMAC251, MT4; read-out: IC50 virus production
[4] = biological target: HIV-1 gp120 interaction with CD4 (Human immunodeficiency virus type 1 group M subtype B, UniProt P04578)
HIV-1 strain DV = assay: HIV-1 induced syncytia formation assay in SUP T1 cells; format: cell-based
HIV-1 RT = HIV-1 RT (Human immunodeficiency virus type 1 group M subtype B, UniProt P04585); assay: In vitro inhibition of HIV-1 RT (kinetic analysis); format: biochemical; details: for IC50: read-out: ID50 (the source's name)
SUP T1 cells [5] = assay: Cytotoxicity assay, CellTiter 96 (MTS), SUP T1 cells; details: read-out: TC50 (concentration reducing cell proliferation by 50%); SUP T1, dye (MTS) metabolism assay
[6] = Oligomer folding by circular dichroism; details: KCl, 25° C., 20 mM Li3PO4
[7] = Thermal denaturation of oligomer fold (UV, Tm); format: physicochemical
HIV-1SKI = assay: Single cycle analysis of HIV-1 cDNA, CEM-SS cells; format: cell-based; details: 10- to 100-fold over IC50
[8] = tested on: CD4- and gp120-mediated cell fusion; assay: cells; format: cell-based; details: HL2/3, read-out: IC50 CD4- and gp120-mediated cell fusion
HIV-1RF = assay: HeLa-CD4-LTR-β-galactosidase cell virus infection assay; format: cell-based; details: Human immunodeficiency virus 1; HIV-1RF; read-out: IC50 β-galactosidase production, virus infection assay
HIV-1IIIB = assay: Time of drug addition study, MT-4 cells (p24); format: cell-based; details: 100-fold IC50, MOI 1, p24 at 29 hour
SUP T1 cells [9] = tested on: SUP T1 cells
HIV-1DV = assay: HIV-1 p24 production in SUP T1 cells; format: cell-based
[10] = read-out: ID50 [CD4], oligo binding to immobilized CD4
[11] = read-out: ID50 [gp 120], oligo preincubated with soluble gp120
[12] = SUP T1, HIV-1 DV, read-out: IC50 in anti-HIV-1 syncytia formation assay

Dextran sulfate [DS5000, reference compound]
IC50 virus-induced cytopathogenicity (Polio virus-1): >400 µg/mL | MCC minimum concentration altering normal cell morphology (Polio virus-1): >400 μg/mL | IC50 virus-induced cytopathogenicity (Junin virus): 13 µg/mL | MCC minimum concentration altering normal cell morphology (Junin virus): >200 μg/mL | IC50 virus-induced cytopathogenicity (Semliki forest virus; Semliki forest virus): >400 µg/mL | MCC minimum concentration altering normal cell morphology (Semliki forest virus; Semliki forest virus assay): >400 μg/mL | IC50 virus-induced cytopathogenicity (HSV-2 (G); HSV-2 (G)): 2 µg/mL | MCC minimum concentration altering normal cell morphology (HSV-2 (G); HSV-2 (G) assay): >400 μg/mL | IC50 (HIV-2 (ROD, EHO); HIV-2EHO): 84 ± 86 nM | IC50 (HIV-2 (ROD, EHO); HIV-2ROD): 82 ± 88 nM | IC50 virus-induced cytopathogenicity (Yellow Fever virus): 26 µg/mL | MCC minimum concentration altering normal cell morphology (Yellow Fever virus): >200 μg/mL | IC50 virus-induced cytopathogenicity (HSV-1; HSV-1 (KOS)): 2 µg/mL | MCC minimum concentration altering normal cell morphology (HSV-1; HSV-1 (KOS) assay): >400 μg/mL | IC50 virus-induced cytopathogenicity (HSV-1; HSV-1 TK (B2006)): 2 µg/mL | MCC minimum concentration altering normal cell morphology (HSV-1; HSV-1 TK (B2006) assay): >400 μg/mL | IC50 virus-induced cytopathogenicity (HSV-1; HSV-1 TK (VMW1837)): 2 µg/mL | MCC minimum concentration altering normal cell morphology (HSV-1; HSV-1 TK (VMW1837) assay): >400 μg/mL | IC50 virus-induced cytopathogenicity (Coxsackie virus (B4); Coxsackie virus (B4)): >400 µg/mL | MCC minimum concentration altering normal cell morphology (Coxsackie virus (B4); Coxsackie virus (B4) assay): >400 μg/mL | IC50 ([1]; 3′-processing, read-out: Anti-Integrase Assay IC50 3′-proc): 70 nM | IC50 ([1]; strand transfer, read-out: Anti-Integrase Assay IC50 strand tran.): 60 nM | IC50 virus-induced cytopathogenicity (Sindbis virus; Sindbis virus): 10 µg/mL | MCC minimum concentration altering normal cell morphology (Sindbis virus; Sindbis virus assay): >400 μg/mL | IC50 virus-induced cytopathogenicity (Vaccinia virus): >400 µg/mL | MCC minimum concentration altering normal cell morphology (Vaccinia virus): >400 μg/mL | IC50 virus-induced cytopathogenicity [2]: 20 µg/mL | MCC minimum concentration altering normal cell morphology [2]: >400 μg/mL | IC50 virus-induced cytopathogenicity (Punta Toro virus; Punta Toro virus): 10.9 µg/mL | MCC minimum concentration altering normal cell morphology (Punta Toro virus; Punta Toro virus assay): >400 μg/mL | IC50 ([3]; HIV-1 ADP/141 (AZT resistant), MT4, read-out: IC50 virus production): 32 ± 8 nM | IC50 ([3]; HIV-1 IIIB, CEM-SS or MT4, read-out: Antiviral Assay IC50 IIIB): 31 nM | IC50 ([3]; HIV-1 IIIB, MT4, read-out: IC50 virus production): 34 ± 16 nM | IC50 ([3]; HIV-1 RF, CEM-SS or MT4, read-out: Antiviral Assay IC50 RF): 16 nM | IC50 ([3]; HIV-1 RF, MT4, read-out: IC50 virus production): 18 ± 20 nM | IC50 virus-induced cytopathogenicity (RSV (A2); RSV (A2)): 4 µg/mL | MCC minimum concentration altering normal cell morphology (RSV (A2); RSV (A2) assay): >200 μg/mL | MCC minimum concentration altering normal cell morphology (Influenza A (H3N2)): >400 μg/mL | IC50 (SIVMAC251): 548 ± 480 nM | IC50 virus-induced cytopathogenicity (Tacaribe): 13.5 µg/mL | MCC minimum concentration altering normal cell morphology (Tacaribe): >200 μg/mL

5′-gttgggggttgttggtggggtggtgg-3′ [I100-00] (DNA GTTGGGGGTTGTTGGTGGGGTGGTGG; phosphorodiamidate backbone, further chemistry not given here)
IC50 [4, 10]: 18000 nM | IC50 [4, 11]: 3500 nM | IC50 (HIV-1 strain DV; [12]): 3750 nM | Ki (HIV-1 RT): 370 nM | IC50 (HIV-1 RT): 5000 nM | CC50 (SUP T1 cells [5]): 37000 nM

5′-gtggtgggtgtggtgggt-3′ (GTGGTGGGTGTGGTGGGT; phosphorothioate termini, further chemistry not given here) [T30676, pPT variant T30177]
midpoint of K+ induced folding transition (CD, 264 nm) [6]: 0.27 mM | Tm ([7]; 1 mM KCl): 33 °C | Tm ([7]; 10 mM KCl): 46 °C | Tm ([7]; 180 mM KCl): 65 °C | IC50 ([1]; read-out: Enzyme IC50 3-′process): 134 nM | IC50 ([1]; read-out: IC50 STR · TRA): 134 ± 16 nM | IC50 ([3]; anti-HIV-1 virus production, read-out: Cell Culture IC50): 1000 nM | IC50 ([3]; cell culture, read-out: IC50 HIV-1RF): 1000 nM

COc1cc(-c2ccc(/N=N/c3ccc4c(S(=O)(=O)O)cc(S(=O)(=O)O)c(N)c4c3O)c(OC)c2)ccc1/N=N/c1ccc2c(S(=O)(=O)O)cc(S(=O)(=O)O)c(N)c2c1O [CSB, Chicago sky blue]
viral cDNA 12 hours post-infection, drug added at time of infection (HIV-1SKI): no detectable viral DNA | IC50 [8]: 800 nM | IC50 (HIV-1RF): 260 nM | delay of drug addition post-infection at which inhibitory effect is lost (HIV-1IIIB): one hour post-virus infection | IC50 ([3]; Human immunodeficiency virus 1, IIIB, CEM-SS, read-out: Antiviral Assay IC50 IIIB, HIV-1 IIIB, CEM-SS or MT4): 600 nM | IC50 ([3]; Human immunodeficiency virus 1, IIIB, CEM-SS, read-out: Antiviral Assay IC50 RF, HIV-1 RF, CEM-SS or MT4): 1700 nM | IC50 ([3]; Human immunodeficiency virus 1, IIIB, CEM-SS, read-out: Antiviral Assay IC50 SKI, HIV-1 SKI, CEM-SS or MT4): 1600 nM

5′-gtggtgggtgggtgggtggtgggtggtggttgtgggtgggtggtg-3′ [I100-07]
inhibition of detection of immobilized gp120 by HRP-α-gp120 antibody ([4]; control experiment): did not inhibit | IC50 [4, 10]: 4250 nM | IC50 [4, 11]: 800 nM | IC50 (HIV-1 strain DV; SUP T1, HIV-1DV, four days, read-out: IC50 Syn (syncytium inhibition)): 250 nM | IC50 (HIV-1 strain DV; [12]): 250 nM | CC50 (SUP T1 cells [9]): > 50000 nM | Ki (HIV-1 RT): 137 nM | IC50 (HIV-1 RT): 2500 nM | Percent p24 relative to infected untreated control, Day 7 (HIV-1DV; 2.5 uM, drug removed day 4): 15.9% | Percent p24 relative to infected untreated control, Day 11 (HIV-1DV; 2.5 uM, drug removed day 4): 8.6% | Percent p24 relative to infected untreated control, Day 4 (HIV-1DV; 2.5 uM, medium replaced day 4): 6.0% | IC50 (HIV-1DV; SUP T1, HIV-1DV, four days): 550 nM
